Measurements as given in ChEMBL document CHEMBL1132131, “Dopamine-selective response in membrane potential by homooxacalix[3]arene triether host incorporated in PVC liquid membrane” (Bioorg Med Chem Lett, 1999).

Key:
[1] = Selectivity of guest-induced changes in membrane potential at pH 5.0 for PVC matrix liquid membranes incorporated with 6,7,9,10,17,18,20,21-Octahydro-5,8,11,16,19,22-hexaoxa-dibenzo[a,j]cyclooctadecene; format: ADME
[2] = Partition coefficient (logP); format: physicochemical; settings: octanol/water
[3] = Selectivity of guest-induced changes in membrane potential at pH 5.0 for PVC matrix liquid membranes incorporated with (2-Butoxy-5-tert-butyl-3-methyl-phenyl)-methanol polymer; format: ADME
[4] = Selectivity of guest-induced changes in membrane potential at pH 5.0 for PVC matrix liquid membranes incorporated with o-Tolyloxy-acetic acid decyl ester polymer; format: ADME
[5] = Selectivity of guest-induced changes in membrane potential at pH 5.0 for PVC matrix liquid membranes incorporated with o-Tolyloxy-acetic acid ethyl ester polymer; format: ADME
[6] = Selectivity of guest-induced changes in membrane potential at pH 5.0 for PVC matrix liquid membrane without any host; format: ADME
[7] = Selectivity of guest-induced changes in membrane potential(Kpot A,B) at pH 5.0 for PVC matrix liquid membranes incorporated with 6,7,9,10,17,18,20,21-Octahydro-5,8,11,16,19,22-hexaoxa-dibenzo[a,j]cyclooctadecene; format: ADME

| SMILES | Kpot A,B [1] | logP [2] | Kpot A,B [4] | Kpot A,B [5] | Kpot A,B [6] | Kpot A,B [7] | Kpot A,B [3] |
| --- | --- | --- | --- | --- | --- | --- | --- |
| NC12CC3CC(CC(C3)C1)C2 [AMANTADINE] | 14.8 | 1.77 | < 0.01 | < 0.01 | 1.2 |  | 1.85 |
| NCCc1ccc(O)c(O)c1 [DOPAMINE] |  | 0.82 | 1 | 1 | 1 |  | 1 |
| NC[C@H](O)c1ccc(O)c(O)c1 [NOREPINEPHRINE] |  | 0.82 |  |  |  |  |  |
| NCCc1ccccc1 [PHENETHYLAMINE] | 1 | 1.58 | 1 | 1 | 1 |  | 1 |

The next lines start with results.

| Kpot A,B [1] | logP [2] | Kpot A,B [4] | Kpot A,B [5] | Kpot A,B [6] | Kpot A,B [7] | SMILES | Kpot A,B [3] |
| --- | --- | --- | --- | --- | --- | --- | --- |
| 19 | 2.93 | 2.58 | 3.52 | 1.68 |  | CCCCCCCCN | 2.01 |
|  |  | 0.15 | 0.15 | 0.78 | 0.9 | NCc1ccccc1 [BENZYLAMINE] | 0.45 |
|  | 0.59 | 0.089 | 0.09 | 0.65 |  | CNC[C@H](O)c1ccc(O)c(O)c1 [EPINEPHRINE] | < 0.01 |
| 0.4 | 0.72 | < 0.01 | < 0.01 | 0.56 |  | CC(C)(C)N [TERT-BUTYLAMINE] | 0.31 |
